{"source": "patent US9840478B2", "about": "(MERCK SHARP & DOHME CORP., priority 2013, dated 2017)"}
{"tested_on": "HIV-1 (H9IIIB strain)", "assay": "Cell-based HIV infection assay using a reporter (Cell-Based), MT4-GFP cells", "conditions": "Human immunodeficiency virus 1, MT4-GFP cells infected with HIV-1 H9IIIB; 50% normal human serum; mean of at least two independent experiments; read-out: Cell-based IP", "outline": "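MT4-GFP cells (HIV LTR-driven GFP) infected 24 h with HIV-1 H9IIIB at low MOI, then washed and plated with compounds in RPMI + 50% normal human serum, 0.4% DMSO final. Green cells counted at 24 and 48 h; R0 = 48 h/24 h ratio, inhibition normalized to DMSO and triple-drug control; IC50 from 4-parameter fit.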", "units": {"IC50": "nM"}}
{"compound": "COC(=O)N[C@H](C(=O)Nc1cccc(F)c1CC[C@H]1CNC[C@H](C)N1S(=O)(=O)c1ccc(OC(F)(F)F)cc1)[C@@H](c1ccc(Cl)cc1)c1ccc(OC)nc1", "note": "[Example 189, (βS)-4-chloro-N-(3-fluoro-2-{2-[(2S,6S)-6-methyl-1-{[4-(trifluoromethoxy)phenyl]sulfonyl}piperazin-2-yl]ethyl}phenyl)-Nα-(methoxycarbonyl)-β-(6-methoxypyridin-3-yl)-L-phenylalaninamide]", "IC50": 29}
{"compound": "COC(=O)N[C@H](C(=O)Nc1cncc(F)c1CC[C@H]1CNC[C@H](C)N1S(C)(=O)=O)[C@@H](c1ccc(F)cc1)c1cc(F)cc(F)c1", "note": "[Example 190, (βS)-β-(3,5-difluorophenyl)-4-fluoro-N-(5-fluoro-4-{2-[(2S,6S)-6-methyl-1-(methylsulfonyl)piperazin-2-yl]ethyl}pyridin-3-yl)-Nα-(methoxycarbonyl)-L-phenylalaninamide]", "IC50": 13}
{"compound": "C[C@H]1CNC[C@H](CCc2c(F)cncc2NC(=O)[C@@H](N)[C@@H](c2ccc(F)cc2)c2cc(F)cc(F)c2)N1S(C)(=O)=O", "note": "[Example 191, (βS)-β-(3,5-difluorophenyl)-4-fluoro-N-(5-fluoro-4-{2-[(2S,6S)-6-methyl-1-(methylsulfonyl)piperazin-2-yl]ethyl}pyridin-3-yl)-L-phenylalaninamide]", "IC50": 20}
{"compound": "C[C@@H]1CNC[C@H](CCc2c(F)cccc2NC(=O)[C@@H](N)[C@@H](c2ccc(F)cc2)c2cc(F)cc(F)c2)N1S(=O)(=O)C1CC1", "note": "[Example 192, (βS)-N-(2-{2-[(2S,6R)-1-(cyclopropylsulfonyl)-6-methylpiperazin-2-yl]ethyl}-3-fluorophenyl)-β-(3,5-difluorophenyl)-4-fluoro-L-phenylalaninamide]", "IC50": 36}
{"compound": "C[C@H]1CNC[C@H](CCc2c(F)cccc2NC(=O)[C@@H](N)[C@@H](Cc2ccc(F)cc2)c2ccc(Cl)cc2)N1S(=O)(=O)c1ccccc1", "note": "[Example 193, (βS)-4-chloro-β-(4-fluorobenzyl)-N-(3-fluoro-2-{2-[(2S,6S)-6-methyl-1-(phenylsulfonyl)piperazin-2-yl]ethyl}phenyl)-L-phenylalaninamide]", "IC50": 56}
{"compound": "COC(=O)N[C@H](C(=O)Nc1cccc(F)c1CC[C@H]1CNC[C@H](C)N1S(=O)(=O)c1ccccc1)[C@@H](Cc1ccc(F)cc1)c1ccc(Cl)cc1", "note": "[Example 194, (βS)-4-chloro-β-(4-fluorobenzyl)-N-(3-fluoro-2-{2-[(2S,6S)-6-methyl-1-(phenylsulfonyl)piperazin-2-yl]ethyl}phenyl)-Nα-(methoxycarbonyl)-L-phenylalaninamide]", "IC50": 34}
{"compound": "C[C@@H]1CNC[C@H](CCc2c(F)cccc2NC(=O)[C@@H](N)[C@@H](Cc2ccc(F)cc2)c2ccc(Cl)cc2)N1S(=O)(=O)c1ccccc1", "note": "[Example 195, (βS)-4-chloro-β-(4-fluorobenzyl)-N-(3-fluoro-2-{2-[(2S,6R)-6-methyl-1-(phenylsulfonyl)piperazin-2-yl]ethyl}phenyl)-L-phenylalaninamide]", "IC50": 77}
{"compound": "COC(=O)N[C@H](C(=O)Nc1cccc(F)c1CC[C@H]1CNC[C@@H](C)N1S(=O)(=O)c1ccccc1)[C@@H](Cc1ccc(F)cc1)c1ccc(Cl)cc1", "note": "[Example 196, (βS)-4-chloro-β-(4-fluorobenzyl)-N-(3-fluoro-2-{2-[(2S,6R)-6-methyl-1-(phenylsulfonyl)piperazin-2-yl]ethyl}phenyl)-Nα-(methoxycarbonyl)-L-phenylalaninamide]", "IC50": 49}
{"compound": "C[C@H]1CNC[C@H](CCc2c(F)cncc2NC(=O)[C@@H](N)[C@@H](c2ccc(F)cc2)c2cc(F)cc(F)c2)N1S(=O)(=O)C1CC1", "note": "[Example 197, (BS)-N-(4-{2-[(2S,6S)-1-(cyclopropylsulfonyl)-6-methylpiperazin-2-yl]ethyl}-5-fluoropyridin-3-yl)-β-(3,5-difluorophenyl)-4-fluoro-L-phenylalaninamide]", "IC50": 18}
